# ChEMBL document CHEMBL5233284, “Design, synthesis and anticancer evaluation of 3-methyl-1H-indazole derivatives as novel selective bromodomain-containing protein 4 inhibitors” (Bioorg Med Chem, 2021)
# pIC50: −log10 of the molar value. The source made the active and inactive calls. No cut-off for these calls is given here.
# Legend:
# [1] = target: T1, Bromodomain-containing protein 4 (Homo sapiens, UniProt O60885); assay: Inhibition of BRD4-BD1 (unknown origin) using C-terminal biotinylated tetra-acetylated histone H4 peptide as substrate incubated for 2.5 hrs by alphascreen assay
# MV4-11 [2] = assay: Antiproliferative activity against human MV4-11 cells assessed as inhibition of cell growth at 10 uM incubated for 96 to 120 hrs by celltiter glo assay relative to control; format: functional; conditions: for inhibition at 10 µM: Homo sapiens, MV4-11, time 96-120 hrs
# MV4-11 [3] = assay: Antiproliferative activity against human MV4-11 cells assessed as inhibition of cell growth incubated for 96 to 120 hrs by celltiter glo assay; format: functional, cell-based
# CWR22R [4] = assay: Antiproliferative activity against human 22Rv1 cells assessed as inhibition of cell growth at 10 uM incubated for 96 to 120 hrs by celltiter glo assay relative to control; format: functional; conditions: for inhibition at 10 µM: Homo sapiens, 22Rv1, time 96-120 hrs
# [5] = target: T1, Bromodomain-containing protein 4; conditions: dose 200.0 µM, time 30-60 min
# Description: Binding affinity to BRD4-BD1 (unknown origin) assessed as change in melting temperature at 200 uM incubated for 30 to 60 mins by SYPRO orange dye based thermal shift assay
# CWR22R [6] = assay: Antiproliferative activity against human 22Rv1 cells assessed as inhibition of cell growth incubated for 96 to 120 hrs by celltiter glo assay; format: functional, cell-based
# [7] = target: SWI/SNF-related matrix-associated actin-dependent regulator of chromatin subfamily A member 2 (Homo sapiens) (UniProt P51531); assay: Binding affinity to SMARCA2A (unknown origin) assessed as change in melting temperature at 200 uM incubated for 30 to 60 mins by SYPRO orange dye based thermal shift assay; conditions: time 30-60 min
# [8] = target: Bromodomain-containing protein 2 (Homo sapiens) (UniProt P25440); assay: Binding affinity to BRD2 BD1 (unknown origin) assessed as change in melting temperature at 200 uM incubated for 30 to 60 mins by SYPRO orange dye based thermal shift assay; conditions: time 30-60 min
# [9] = target: Bromodomain-containing protein 3 (Homo sapiens) (UniProt Q15059); assay: Binding affinity to BRD3 BD1 (unknown origin) assessed as change in melting temperature at 200 uM incubated for 30 to 60 mins by SYPRO orange dye based thermal shift assay; conditions: time 30-60 min
# [10] = target: CREB-binding protein (Homo sapiens) (UniProt Q92793); assay: Binding affinity to CBP (unknown origin) assessed as change in melting temperature at 200 uM incubated for 30 to 60 mins by SYPRO orange dye based thermal shift assay; conditions: time 30-60 min
# [11] = target: Histone acetyltransferase p300 (Homo sapiens) (UniProt Q09472); assay: Binding affinity to EP300 (unknown origin) assessed as change in melting temperature at 200 uM incubated for 30 to 60 mins by SYPRO orange dye based thermal shift assay; conditions: time 30-60 min
# [12] = target: Chromatin remodeling regulator CECR2 (Homo sapiens) (UniProt Q9BXF3); assay: Binding affinity to CECR2 (unknown origin) assessed as change in melting temperature at 200 uM incubated for 30 to 60 mins by SYPRO orange dye based thermal shift assay; conditions: time 30-60 min
# [13] = target: Bromodomain adjacent to zinc finger domain protein 2B (Homo sapiens) (UniProt Q9UIF8); assay: Binding affinity to BAZ2B (unknown origin) assessed as change in melting temperature at 200 uM incubated for 30 to 60 mins by SYPRO orange dye based thermal shift assay; conditions: time 30-60 min
# [14] = target: Histone acetyltransferase KAT2B (Homo sapiens) (UniProt Q92831); assay: Binding affinity to PCAF (unknown origin) assessed as change in melting temperature at 200 uM incubated for 30 to 60 mins by SYPRO orange dye based thermal shift assay; conditions: time 30-60 min
# [15] = target: T1, Bromodomain-containing protein 4; assay: Inhibition of BRD4 BD1 in human MV4-11 cells assessed as inhibition of c-myc protein expression at 20 uM incubated for 48 hrs by Western blot analysis; format: cell-based
# [16] = target: T1, Bromodomain-containing protein 4; assay: Inhibition of BRD4-BD1 (unknown origin) at 60 uM relative to control
# Chain of SWI/SNF-related matrix-associated actin-dependent regulator of chromatin subfamily A member 2 (Homo sapiens) (P51531 whole entry): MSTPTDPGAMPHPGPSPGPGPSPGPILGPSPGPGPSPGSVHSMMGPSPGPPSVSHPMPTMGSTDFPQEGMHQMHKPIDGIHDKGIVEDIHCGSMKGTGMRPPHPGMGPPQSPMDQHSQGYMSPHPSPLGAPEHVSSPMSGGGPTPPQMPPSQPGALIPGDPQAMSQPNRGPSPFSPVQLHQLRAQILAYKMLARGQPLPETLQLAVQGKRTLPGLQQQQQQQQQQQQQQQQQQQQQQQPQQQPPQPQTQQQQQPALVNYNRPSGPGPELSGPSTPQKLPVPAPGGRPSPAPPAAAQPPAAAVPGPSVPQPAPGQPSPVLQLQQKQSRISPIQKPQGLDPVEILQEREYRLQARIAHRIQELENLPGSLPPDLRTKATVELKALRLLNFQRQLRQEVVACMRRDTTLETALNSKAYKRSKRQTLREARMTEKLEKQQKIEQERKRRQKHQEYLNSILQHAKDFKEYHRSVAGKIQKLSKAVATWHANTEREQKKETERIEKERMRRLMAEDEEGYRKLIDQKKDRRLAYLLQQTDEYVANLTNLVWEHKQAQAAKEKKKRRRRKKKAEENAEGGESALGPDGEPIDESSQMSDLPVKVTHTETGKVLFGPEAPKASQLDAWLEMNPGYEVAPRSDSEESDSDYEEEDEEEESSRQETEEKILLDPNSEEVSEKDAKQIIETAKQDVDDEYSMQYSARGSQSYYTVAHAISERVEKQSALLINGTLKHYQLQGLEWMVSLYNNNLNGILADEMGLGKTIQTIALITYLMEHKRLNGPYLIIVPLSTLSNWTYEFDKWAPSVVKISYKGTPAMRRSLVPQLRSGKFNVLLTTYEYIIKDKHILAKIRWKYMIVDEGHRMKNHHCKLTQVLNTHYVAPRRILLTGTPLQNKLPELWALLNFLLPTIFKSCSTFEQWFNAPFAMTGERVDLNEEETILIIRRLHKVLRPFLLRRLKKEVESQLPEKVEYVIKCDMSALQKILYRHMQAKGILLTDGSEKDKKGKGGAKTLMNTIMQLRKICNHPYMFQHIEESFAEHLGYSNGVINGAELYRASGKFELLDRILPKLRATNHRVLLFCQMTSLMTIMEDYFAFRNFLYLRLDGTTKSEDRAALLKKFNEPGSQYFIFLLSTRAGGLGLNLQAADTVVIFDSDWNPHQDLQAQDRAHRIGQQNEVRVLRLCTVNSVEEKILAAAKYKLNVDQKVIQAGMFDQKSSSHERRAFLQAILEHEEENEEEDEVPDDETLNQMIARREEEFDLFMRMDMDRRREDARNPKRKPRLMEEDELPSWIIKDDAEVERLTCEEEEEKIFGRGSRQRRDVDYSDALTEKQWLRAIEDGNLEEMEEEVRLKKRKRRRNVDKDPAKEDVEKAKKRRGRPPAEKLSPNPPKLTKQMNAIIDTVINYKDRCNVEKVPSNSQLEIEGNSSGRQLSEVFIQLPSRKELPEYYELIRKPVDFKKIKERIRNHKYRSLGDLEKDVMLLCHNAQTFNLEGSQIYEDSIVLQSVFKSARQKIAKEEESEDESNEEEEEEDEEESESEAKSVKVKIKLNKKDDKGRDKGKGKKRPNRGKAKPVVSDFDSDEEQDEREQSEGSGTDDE
# Chain of Bromodomain-containing protein 2 (Homo sapiens) (P25440 whole entry, looked up): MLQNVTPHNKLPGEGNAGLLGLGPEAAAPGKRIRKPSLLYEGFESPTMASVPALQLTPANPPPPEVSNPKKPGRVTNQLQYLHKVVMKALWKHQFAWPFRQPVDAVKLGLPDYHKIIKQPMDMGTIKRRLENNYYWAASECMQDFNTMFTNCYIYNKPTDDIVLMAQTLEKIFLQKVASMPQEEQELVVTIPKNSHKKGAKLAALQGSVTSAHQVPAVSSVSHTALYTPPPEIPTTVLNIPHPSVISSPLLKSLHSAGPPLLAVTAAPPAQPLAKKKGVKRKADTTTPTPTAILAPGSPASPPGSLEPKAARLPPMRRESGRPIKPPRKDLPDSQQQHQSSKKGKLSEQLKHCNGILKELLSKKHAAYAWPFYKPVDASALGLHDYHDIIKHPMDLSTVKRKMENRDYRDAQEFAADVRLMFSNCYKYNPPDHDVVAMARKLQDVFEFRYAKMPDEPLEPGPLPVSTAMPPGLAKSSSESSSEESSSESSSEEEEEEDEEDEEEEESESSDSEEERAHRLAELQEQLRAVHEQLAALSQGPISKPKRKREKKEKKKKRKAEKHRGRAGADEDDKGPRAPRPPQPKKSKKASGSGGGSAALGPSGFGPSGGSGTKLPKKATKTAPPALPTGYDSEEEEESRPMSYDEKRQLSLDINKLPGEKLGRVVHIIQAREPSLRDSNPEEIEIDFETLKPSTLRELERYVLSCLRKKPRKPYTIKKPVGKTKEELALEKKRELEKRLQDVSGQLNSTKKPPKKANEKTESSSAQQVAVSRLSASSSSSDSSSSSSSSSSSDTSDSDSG
# Chain of Histone acetyltransferase KAT2B (Homo sapiens) (Q92831 whole entry, looked up): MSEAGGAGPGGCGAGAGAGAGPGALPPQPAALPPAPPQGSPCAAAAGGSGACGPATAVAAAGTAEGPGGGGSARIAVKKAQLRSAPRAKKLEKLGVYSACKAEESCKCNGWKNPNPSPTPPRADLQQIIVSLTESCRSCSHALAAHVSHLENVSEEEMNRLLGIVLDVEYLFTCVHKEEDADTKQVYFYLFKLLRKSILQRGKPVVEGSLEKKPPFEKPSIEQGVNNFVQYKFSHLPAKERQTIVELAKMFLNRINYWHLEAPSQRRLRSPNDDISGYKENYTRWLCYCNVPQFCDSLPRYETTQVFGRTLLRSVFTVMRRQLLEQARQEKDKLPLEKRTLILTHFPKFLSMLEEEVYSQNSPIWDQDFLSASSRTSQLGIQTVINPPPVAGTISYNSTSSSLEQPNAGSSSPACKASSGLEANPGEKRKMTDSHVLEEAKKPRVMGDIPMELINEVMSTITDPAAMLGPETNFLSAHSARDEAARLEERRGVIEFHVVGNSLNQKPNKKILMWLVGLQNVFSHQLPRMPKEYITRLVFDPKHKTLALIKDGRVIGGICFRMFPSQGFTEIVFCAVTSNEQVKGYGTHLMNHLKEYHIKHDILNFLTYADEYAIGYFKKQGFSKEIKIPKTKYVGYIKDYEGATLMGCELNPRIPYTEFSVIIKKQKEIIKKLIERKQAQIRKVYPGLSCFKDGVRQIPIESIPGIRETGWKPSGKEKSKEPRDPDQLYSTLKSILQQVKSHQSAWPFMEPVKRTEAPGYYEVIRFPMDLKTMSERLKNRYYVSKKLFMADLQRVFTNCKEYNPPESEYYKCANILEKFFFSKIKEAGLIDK
# Chain of Bromodomain-containing protein 3 (Homo sapiens) (Q15059 2-726 limits assumed): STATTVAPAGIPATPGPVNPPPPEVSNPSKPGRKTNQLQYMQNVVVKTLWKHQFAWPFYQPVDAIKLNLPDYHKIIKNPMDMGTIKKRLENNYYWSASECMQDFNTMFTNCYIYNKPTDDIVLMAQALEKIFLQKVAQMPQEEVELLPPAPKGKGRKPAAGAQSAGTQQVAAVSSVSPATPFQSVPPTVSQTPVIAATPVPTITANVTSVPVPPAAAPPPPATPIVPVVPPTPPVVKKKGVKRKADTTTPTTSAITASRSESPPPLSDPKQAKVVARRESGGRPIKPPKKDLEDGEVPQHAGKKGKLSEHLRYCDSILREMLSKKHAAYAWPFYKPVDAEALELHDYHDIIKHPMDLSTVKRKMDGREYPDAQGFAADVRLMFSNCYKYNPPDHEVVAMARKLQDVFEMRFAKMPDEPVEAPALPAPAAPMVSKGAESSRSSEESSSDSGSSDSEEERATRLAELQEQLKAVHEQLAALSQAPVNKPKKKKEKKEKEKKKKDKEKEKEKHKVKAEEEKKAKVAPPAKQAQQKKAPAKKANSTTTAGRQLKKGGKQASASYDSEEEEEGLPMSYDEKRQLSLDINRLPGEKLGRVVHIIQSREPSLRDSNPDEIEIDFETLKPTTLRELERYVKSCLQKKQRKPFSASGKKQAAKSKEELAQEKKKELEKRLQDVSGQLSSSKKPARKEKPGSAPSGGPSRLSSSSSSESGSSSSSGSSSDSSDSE
SMILES,pIC50 [1],inhibition at 10 µM (MV4-11 [2]) [%],pIC50 (MV4-11 [3]),inhibition at 10 µM (CWR22R [4]) [%],ΔTm [5] [°C],other results
Cc1n[nH]c2ccc(-c3nc4cnc(N5CCN(C)CC5)cn4c3Nc3ccc(Cl)cc3Cl)cc12,4.79,78.8,5.33,9.53,2,–
Cc1n[nH]c2ccc(-c3nc4cnc(N5CCN(C)CC5)cn4c3Nc3ccc(Br)cc3)cc12,5.16,83,5.59,11.7,7.2,–
COc1ccc(Nc2c(-c3ccc4[nH]nc(C)c4c3)nc3cnc(N4CCOCC4)cn23)cc1,5.29,11.5,–,1.2,6.9,–
Cc1n[nH]c2ccc(-c3nc4cnc(N5CCN(C)CC5)cn4c3Nc3ccc(F)cc3Br)cc12,5.13,82.4,5.42,4.41,5.1,–
Cc1n[nH]c2ccc(-c3nc4cnc(N5CCOCC5)cn4c3Cc3ccc(Cl)cc3)cc12,–,0,–,–,6.6,–
Cc1n[nH]c2ccc(-c3nc4cnc(N5CCN(C)CC5)cn4c3Nc3ccc(Cl)cc3)cc12,5.20,83.7,5.45,8.11,5,–
Cc1ccc(C)c(Nc2c(-c3ccc4[nH]nc(C)c4c3)nc3cnc(N4CCN(C)CC4)cn23)c1,–,0,–,–,5.3,–
Cc1n[nH]c2ccc(-c3nc4cnc(N5CCN(C)CC5)cn4c3Nc3ccccc3)cc12,5.21,0,–,–,5,–
Cc1n[nH]c2ccc(-c3nc4cnc(N5CCN(C)CC5)cn4c3Nc3cc(Cl)ccc3Cl)cc12,5.44,23.8,–,3.8,3.9,–
Cc1sc2c(c1C)C(c1ccc(Cl)cc1)=N[C@@H](CC(=O)OC(C)(C)C)c1nnc(C)n1-2,–,–,7.77,–,–,inhibition (INH) (MV4-11 [2]; time 96-120 hrs): 90.01%; inhibition (INH) (CWR22R [4]; time 96-120 hrs): 82.88%; pIC50 (CWR22R [6]): 7.48; ΔTm [7]: -0.5 °C
Cc1n[nH]c2ccc(-c3nc4cnc(N5CCN(C)CC5)cn4c3Nc3ccc(Br)cc3Cl)cc12,–,70.5,5.04,–,2.7,–
Cc1n[nH]c2ccc(-c3nc4cnc(N5CCOCC5)cn4c3Nc3ccc(Cl)cc3)cc12,5.45,84,5.43,13.8,7.5,pIC50 (CWR22R [6]): 4.80; ΔTm [8]: 1 °C; ΔTm [9]: 2.3 °C; ΔTm [10]: -1 °C; ΔTm [11]: -1.5 °C; ΔTm [12]: 0 °C; ΔTm [13]: -2 °C; ΔTm [14]: -1.5 °C; ΔTm [7]: 0 °C; inhibition [15]: Active
Cc1n[nH]c2ccc(-c3nc4cnc(N5CCN(C)CC5)cn4c3Nc3ccc(I)cc3)cc12,–,0,–,–,4.5,–
Cc1n[nH]c2ccc(-c3nc4cnc(N5CCN(C)CC5)cn4c3Nc3cccc(Cl)c3)cc12,–,0,–,–,6.3,–
Cc1n[nH]c2ccc(-c3nc4cnc(N5CCN(C)CC5)cn4c3Nc3ccccc3Cl)cc12,–,58.1,–,–,3.6,–
COc1ccc(Nc2c(-c3ccc4[nH]nc(C)c4c3)nc3cnc(N4CCN(C)CC4)cn23)cc1OC,4.90,6.27,–,0,6.9,–
COc1ccc(Nc2c(-c3ccc4[nH]nc(C)c4c3)nc3cnc(N4CCN(C)CC4)cn23)cc1,4.69,3.32,–,0,5.3,–
Cc1n[nH]c2ccc(-c3nc4cnc(N5CCN(C)CC5)cn4c3Nc3ccc(Cl)cc3F)cc12,5.17,0,4.99,–,4.5,pIC50 (CWR22R [6]): 4.85
Cc1n[nH]c2ccc(-c3nc4cnc(N5CCC(C)CC5)cn4c3Nc3ccc(Cl)cc3)cc12,4.69,27.9,–,12.6,2.1,–
COc1cc(-c2nc3cnccn3c2Nc2ccccc2)ccc1O,–,–,–,–,–,inhibition [16]: 40%
Cc1cc(Br)ccc1Nc1c(-c2ccc3[nH]nc(C)c3c2)nc2cnc(N3CCN(C)CC3)cn12,–,59.4,4.96,–,3.7,pIC50 (CWR22R [6]): 5.19
Cc1n[nH]c2ccc(-c3nc4cnc(N5CCN(C)CC5)cn4c3Nc3ccc(F)cc3)cc12,5.38,0,4.49,–,6.5,pIC50 (CWR22R [6]): 4.47
Cc1n[nH]c2ccc(-c3nc4cnc(N5CCN(C)CC5)cn4c3Nc3cccc(F)c3)cc12,4.84,18.5,–,5.41,6.9,–
Cc1n[nH]c2ccc(-c3nc4cnc(N5CCOCC5)cn4c3Nc3ccc(Br)cc3)cc12,5.33,45.9,–,10.1,6.9,–
Cc1n[nH]c2ccc(-c3nc4cnc(N5CCN(C)CC5)cn4c3Nc3ccccc3F)cc12,5.00,0,–,0,6.9,–
Cc1n[nH]c2ccc(-c3nc4cnc(N5CCN(C)CC5)cn4c3Nc3ccc(F)c(Cl)c3)cc12,5.24,84.1,5.55,0.82,6,pIC50 (CWR22R [6]): 4.85
Cc1n[nH]c2ccc(-c3nc4cnc(N5CCOCC5)cn4c3Nc3ccccc3)cc12,5.42,0,–,–,6.1,pIC50 (CWR22R [6]): 4.42
